Converted amounts (≈) assume the structure as drawn.
System: Aspergillus niger
Assay: Antifungal activity against Aspergillus niger after 24 hrs by two fold dilution method
Assay type: functional
Details: not given

Row | Compound | MIC [µg/mL]
1 | O=[N+]([O-])c1ccc(N2C(O)CC(c3ccccc3)N2C(c2ccc3c(c2)OCO3)N2CCOCC2)c([N+](=O)[O-])c1 (stereo not given) | 8 (≈ 14.6 µM)
2 | CN(C)c1ccc(C(N2CCOCC2)N2C(c3ccccc3)CC(O)N2c2ccc([N+](=O)[O-])cc2[N+](=O)[O-])cc1 (stereo not given) | > 100
3 | O=[N+]([O-])c1ccc(N2C(O)CC(c3ccccc3)N2C(c2ccc(Cl)cc2)N2CCOCC2)c([N+](=O)[O-])c1 (stereo not given) | 64 (≈ 119 µM)
4 | O=[N+]([O-])c1ccc(N2C(O)CC(c3ccccc3)N2C(c2cncs2)N2CCOCC2)c([N+](=O)[O-])c1 (stereo not given) | 32 (≈ 62.4 µM)

System: not listed separately
Assay: Antioxidant activity assessed as reduction in AAPH free radical-induced linoleic acid peroxidation activity measured at 100 ug/ml by UV spectroscopic analysis
Assay type: functional
Design: scale not given: the % may be the effect or the level left
Details: not given

Row | Compound | Activity [%]
5 | O=[N+]([O-])c1ccc(N2C(O)CC(c3ccccc3)N2C(c2ccc3c(c2)OCO3)N2CCOCC2)c([N+](=O)[O-])c1 (stereo not given) | 29.8
6 | CN(C)c1ccc(C(N2CCOCC2)N2C(c3ccccc3)CC(O)N2c2ccc([N+](=O)[O-])cc2[N+](=O)[O-])cc1 (stereo not given) | 29.6
7 | O=[N+]([O-])c1ccc(N2C(O)CC(c3ccccc3)N2C(c2ccc(Cl)cc2)N2CCOCC2)c([N+](=O)[O-])c1 (stereo not given) | 32
8 | O=[N+]([O-])c1ccc(N2C(O)CC(c3ccccc3)N2C(c2cncs2)N2CCOCC2)c([N+](=O)[O-])c1 (stereo not given) | 21.5

System: Staphylococcus epidermidis
Assay: Antibacterial activity against Staphylococcus epidermidis after 24 hrs by two fold dilution method
Assay type: functional
Details: not given

Row | Compound | MIC [µg/mL]
9 | O=[N+]([O-])c1ccc(N2C(O)CC(c3ccccc3)N2C(c2ccc3c(c2)OCO3)N2CCOCC2)c([N+](=O)[O-])c1 (stereo not given) | > 100
10 | CN(C)c1ccc(C(N2CCOCC2)N2C(c3ccccc3)CC(O)N2c2ccc([N+](=O)[O-])cc2[N+](=O)[O-])cc1 (stereo not given) | 2 (≈ 3.65 µM)
11 | O=[N+]([O-])c1ccc(N2C(O)CC(c3ccccc3)N2C(c2ccc(Cl)cc2)N2CCOCC2)c([N+](=O)[O-])c1 (stereo not given) | > 100
12 | O=[N+]([O-])c1ccc(N2C(O)CC(c3ccccc3)N2C(c2cncs2)N2CCOCC2)c([N+](=O)[O-])c1 (stereo not given) | 32 (≈ 62.4 µM)

System: Staphylococcus aureus
Assay: Antibacterial activity against Staphylococcus aureus after 24 hrs by two fold dilution method
Assay type: functional
Details: not given

Row | Compound | MIC [µg/mL]
13 | O=[N+]([O-])c1ccc(N2C(O)CC(c3ccccc3)N2C(c2ccc3c(c2)OCO3)N2CCOCC2)c([N+](=O)[O-])c1 (stereo not given) | > 100
14 | CN(C)c1ccc(C(N2CCOCC2)N2C(c3ccccc3)CC(O)N2c2ccc([N+](=O)[O-])cc2[N+](=O)[O-])cc1 (stereo not given) | > 100
15 | O=[N+]([O-])c1ccc(N2C(O)CC(c3ccccc3)N2C(c2ccc(Cl)cc2)N2CCOCC2)c([N+](=O)[O-])c1 (stereo not given) | 64 (≈ 119 µM)
16 | O=[N+]([O-])c1ccc(N2C(O)CC(c3ccccc3)N2C(c2cncs2)N2CCOCC2)c([N+](=O)[O-])c1 (stereo not given) | > 100

System: Candida albicans
Assay: Antifungal activity against Candida albicans after 24 hrs by two fold dilution method
Assay type: functional
Details: not given

Row | Compound | MIC [µg/mL]
17 | O=[N+]([O-])c1ccc(N2C(O)CC(c3ccccc3)N2C(c2ccc3c(c2)OCO3)N2CCOCC2)c([N+](=O)[O-])c1 (stereo not given) | 16 (≈ 29.1 µM)
18 | CN(C)c1ccc(C(N2CCOCC2)N2C(c3ccccc3)CC(O)N2c2ccc([N+](=O)[O-])cc2[N+](=O)[O-])cc1 (stereo not given) | 2 (≈ 3.65 µM)
19 | O=[N+]([O-])c1ccc(N2C(O)CC(c3ccccc3)N2C(c2ccc(Cl)cc2)N2CCOCC2)c([N+](=O)[O-])c1 (stereo not given) | 1 (≈ 1.85 µM)
20 | O=[N+]([O-])c1ccc(N2C(O)CC(c3ccccc3)N2C(c2cncs2)N2CCOCC2)c([N+](=O)[O-])c1 (stereo not given) | 32 (≈ 62.4 µM)

System: not listed separately
Assay: Antioxidant activity assessed as ABTS radical scavenging activity at 100 ug/ml after 30 mins
Assay type: functional
Details: not given

Row | Compound | Activity [%]
21 | O=[N+]([O-])c1ccc(N2C(O)CC(c3ccccc3)N2C(c2ccc3c(c2)OCO3)N2CCOCC2)c([N+](=O)[O-])c1 (stereo not given) | 34.5
22 | CN(C)c1ccc(C(N2CCOCC2)N2C(c3ccccc3)CC(O)N2c2ccc([N+](=O)[O-])cc2[N+](=O)[O-])cc1 (stereo not given) | 31
23 | O=[N+]([O-])c1ccc(N2C(O)CC(c3ccccc3)N2C(c2ccc(Cl)cc2)N2CCOCC2)c([N+](=O)[O-])c1 (stereo not given) | 41.9
24 | O=[N+]([O-])c1ccc(N2C(O)CC(c3ccccc3)N2C(c2cncs2)N2CCOCC2)c([N+](=O)[O-])c1 (stereo not given) | 24.6

System: Klebsiella pneumoniae
Assay: Antibacterial activity against Klebsiella pneumoniae after 24 hrs by two fold dilution method
Assay type: functional
Details: not given

Row | Compound | MIC [µg/mL]
25 | O=[N+]([O-])c1ccc(N2C(O)CC(c3ccccc3)N2C(c2ccc3c(c2)OCO3)N2CCOCC2)c([N+](=O)[O-])c1 (stereo not given) | 64 (≈ 116 µM)
26 | CN(C)c1ccc(C(N2CCOCC2)N2C(c3ccccc3)CC(O)N2c2ccc([N+](=O)[O-])cc2[N+](=O)[O-])cc1 (stereo not given) | 64 (≈ 117 µM)
27 | O=[N+]([O-])c1ccc(N2C(O)CC(c3ccccc3)N2C(c2ccc(Cl)cc2)N2CCOCC2)c([N+](=O)[O-])c1 (stereo not given) | 64 (≈ 119 µM)
28 | O=[N+]([O-])c1ccc(N2C(O)CC(c3ccccc3)N2C(c2cncs2)N2CCOCC2)c([N+](=O)[O-])c1 (stereo not given) | > 100

System: not listed separately
Assay: Antifungal activity against Cryptococcus neoformans after 24 hrs by two fold dilution method
Assay type: functional
Details: not given

Row | Compound | MIC [µg/mL]
29 | O=[N+]([O-])c1ccc(N2C(O)CC(c3ccccc3)N2C(c2ccc3c(c2)OCO3)N2CCOCC2)c([N+](=O)[O-])c1 (stereo not given) | 64 (≈ 116 µM)
30 | CN(C)c1ccc(C(N2CCOCC2)N2C(c3ccccc3)CC(O)N2c2ccc([N+](=O)[O-])cc2[N+](=O)[O-])cc1 (stereo not given) | > 100
31 | O=[N+]([O-])c1ccc(N2C(O)CC(c3ccccc3)N2C(c2ccc(Cl)cc2)N2CCOCC2)c([N+](=O)[O-])c1 (stereo not given) | 64 (≈ 119 µM)
32 | O=[N+]([O-])c1ccc(N2C(O)CC(c3ccccc3)N2C(c2cncs2)N2CCOCC2)c([N+](=O)[O-])c1 (stereo not given) | 32 (≈ 62.4 µM)

System: not listed separately
Assay: Cytotoxicity against human HeLa cells after 48 hrs by MTT assay
Assay type: functional
Details: not given

Row | Compound | GI50 [µM] | LC50 [µM] | TGI [µM]
33 | O=[N+]([O-])c1ccc(N2C(O)CC(c3ccccc3)N2C(c2ccc3c(c2)OCO3)N2CCOCC2)c([N+](=O)[O-])c1 (stereo not given) | 52.9 | > 100 | 81.3
34 | CN(C)c1ccc(C(N2CCOCC2)N2C(c3ccccc3)CC(O)N2c2ccc([N+](=O)[O-])cc2[N+](=O)[O-])cc1 (stereo not given) | 29.2 | > 100 | 57.9
35 | O=[N+]([O-])c1ccc(N2C(O)CC(c3ccccc3)N2C(c2ccc(Cl)cc2)N2CCOCC2)c([N+](=O)[O-])c1 (stereo not given) | 51 | > 100 | 89.2
36 | O=[N+]([O-])c1ccc(N2C(O)CC(c3ccccc3)N2C(c2cncs2)N2CCOCC2)c([N+](=O)[O-])c1 (stereo not given) | 37.9 | 78.9 | 51.9

System: not listed separately
Assay: Antifungal activity against Microsporum audouinii after 24 hrs by two fold dilution method
Assay type: functional
Details: not given

Row | Compound | MIC [µg/mL]
37 | O=[N+]([O-])c1ccc(N2C(O)CC(c3ccccc3)N2C(c2ccc3c(c2)OCO3)N2CCOCC2)c([N+](=O)[O-])c1 (stereo not given) | 32 (≈ 58.2 µM)
38 | CN(C)c1ccc(C(N2CCOCC2)N2C(c3ccccc3)CC(O)N2c2ccc([N+](=O)[O-])cc2[N+](=O)[O-])cc1 (stereo not given) | > 100
39 | O=[N+]([O-])c1ccc(N2C(O)CC(c3ccccc3)N2C(c2ccc(Cl)cc2)N2CCOCC2)c([N+](=O)[O-])c1 (stereo not given) | 64 (≈ 119 µM)
40 | O=[N+]([O-])c1ccc(N2C(O)CC(c3ccccc3)N2C(c2cncs2)N2CCOCC2)c([N+](=O)[O-])c1 (stereo not given) | 64 (≈ 125 µM)

System: Pseudomonas aeruginosa
Assay: Antibacterial activity against Pseudomonas aeruginosa after 24 hrs by two fold dilution method
Assay type: functional
Details: not given

Row | Compound | MIC [µg/mL]
41 | O=[N+]([O-])c1ccc(N2C(O)CC(c3ccccc3)N2C(c2ccc3c(c2)OCO3)N2CCOCC2)c([N+](=O)[O-])c1 (stereo not given) | 2 (≈ 3.64 µM)
42 | CN(C)c1ccc(C(N2CCOCC2)N2C(c3ccccc3)CC(O)N2c2ccc([N+](=O)[O-])cc2[N+](=O)[O-])cc1 (stereo not given) | 64 (≈ 117 µM)
43 | O=[N+]([O-])c1ccc(N2C(O)CC(c3ccccc3)N2C(c2ccc(Cl)cc2)N2CCOCC2)c([N+](=O)[O-])c1 (stereo not given) | 64 (≈ 119 µM)
44 | O=[N+]([O-])c1ccc(N2C(O)CC(c3ccccc3)N2C(c2cncs2)N2CCOCC2)c([N+](=O)[O-])c1 (stereo not given) | 64 (≈ 125 µM)

System: not listed separately
Assay: Cytotoxicity against human MCF7 cells after 48 hrs by MTT assay
Assay type: functional
Details: MCF7, 48 h

Row | Compound | GI50 [µM] | LC50 [µM] | TGI [µM]
45 | O=[N+]([O-])c1ccc(N2C(O)CC(c3ccccc3)N2C(c2ccc3c(c2)OCO3)N2CCOCC2)c([N+](=O)[O-])c1 (stereo not given) | 12.9 | 87.2 | 45.3
46 | CN(C)c1ccc(C(N2CCOCC2)N2C(c3ccccc3)CC(O)N2c2ccc([N+](=O)[O-])cc2[N+](=O)[O-])cc1 (stereo not given) | 13.9 | > 100 | 28.9
47 | O=[N+]([O-])c1ccc(N2C(O)CC(c3ccccc3)N2C(c2ccc(Cl)cc2)N2CCOCC2)c([N+](=O)[O-])c1 (stereo not given) | 46.1 | > 100 | 85.1
48 | O=[N+]([O-])c1ccc(N2C(O)CC(c3ccccc3)N2C(c2cncs2)N2CCOCC2)c([N+](=O)[O-])c1 (stereo not given) | 34 | > 100 | 67.4

System: Escherichia coli
Assay: Antibacterial activity against Escherichia coli after 24 hrs by two fold dilution method
Assay type: functional
Details: not given

Row | Compound | MIC [µg/mL]
49 | O=[N+]([O-])c1ccc(N2C(O)CC(c3ccccc3)N2C(c2ccc3c(c2)OCO3)N2CCOCC2)c([N+](=O)[O-])c1 (stereo not given) | > 100
50 | CN(C)c1ccc(C(N2CCOCC2)N2C(c3ccccc3)CC(O)N2c2ccc([N+](=O)[O-])cc2[N+](=O)[O-])cc1 (stereo not given) | 8 (≈ 14.6 µM)
51 | O=[N+]([O-])c1ccc(N2C(O)CC(c3ccccc3)N2C(c2ccc(Cl)cc2)N2CCOCC2)c([N+](=O)[O-])c1 (stereo not given) | 0.5 (≈ 0.926 µM)
52 | O=[N+]([O-])c1ccc(N2C(O)CC(c3ccccc3)N2C(c2cncs2)N2CCOCC2)c([N+](=O)[O-])c1 (stereo not given) | 2 (≈ 3.9 µM)

System: not listed separately
Assay: Cytotoxicity against human HepG2 cells after 48 hrs by MTT assay
Assay type: functional
Details: HepG2, 48 h

Row | Compound | GI50 [µM] | LC50 [µM] | TGI [µM]
53 | O=[N+]([O-])c1ccc(N2C(O)CC(c3ccccc3)N2C(c2ccc3c(c2)OCO3)N2CCOCC2)c([N+](=O)[O-])c1 (stereo not given) | 21.3 | 62.1 | 41
54 | CN(C)c1ccc(C(N2CCOCC2)N2C(c3ccccc3)CC(O)N2c2ccc([N+](=O)[O-])cc2[N+](=O)[O-])cc1 (stereo not given) | 35.8 | > 100 | 62.3
55 | O=[N+]([O-])c1ccc(N2C(O)CC(c3ccccc3)N2C(c2ccc(Cl)cc2)N2CCOCC2)c([N+](=O)[O-])c1 (stereo not given) | 12.2 | 42.8 | 23.1
56 | O=[N+]([O-])c1ccc(N2C(O)CC(c3ccccc3)N2C(c2cncs2)N2CCOCC2)c([N+](=O)[O-])c1 (stereo not given) | 32 | 89.3 | 61.3

Reference: ChEMBL document CHEMBL3872243, “Synthesis of new morpholine-connected pyrazolidine derivatives and their antimicrobial, antioxidant, and cytotoxic activities” (2017)
